In the series the test system is CCRIS mutagenicity, Ames/micronucleus/aberration tests. Briefly: CCRIS mutagenicity studies.

Drawing on PubChem BioAssay AID1259407 (Chemical Carcinogenesis Research Information System (CCRIS), 2018), this text covers mutagenic call for 2 compounds.

The structures appear in SMILES notation. The source made the active and inactive calls. The rule behind the calls is not given here.

As for `ClCC1CO1` (stereo not drawn), the mutagenic call is, setting by setting: (End Point: IN VITRO CHROMOSOMAL ABERRATIONS, Test System: CHL CELLS, Metabolic Activation: NONE) “active; positive (structural changes)”; (End Point: IN VITRO CHROMOSOMAL ABERRATIONS, Test System: CHL CELLS, Metabolic Activation: RAT, LIVER, S-9, SODIUM PHENOBARBITAL AND 5,6-BENZOFLAVONE) “active; positive (structural changes)”; (Test System: AMES SALMONELLA TYPHIMURIUM, Strain/Indicator: G46, Metabolic Activation: NONE, Method: STANDARD PLATE) “active; positive”; (Test System: AMES SALMONELLA TYPHIMURIUM, Strain/Indicator: TA97, Metabolic Activation: NONE, Method: STANDARD PLATE) “active; positive”; (Test System: AMES SALMONELLA TYPHIMURIUM, Strain/Indicator: TA97, Metabolic Activation: RAT, LIVER, S-9, AROCLOR 1254, Method: STANDARD PLATE) “inactive; negative”; (Test System: AMES SALMONELLA TYPHIMURIUM, Strain/Indicator: TA98, Metabolic Activation: NONE, Method: STANDARD PLATE) “inactive; negative”. In addition, the mutagenic call reads like this: (Test System: AMES SALMONELLA TYPHIMURIUM, Strain/Indicator: TA98, Metabolic Activation: RAT LIVER S-9, PHENOBARBITAL AND BETA-NAPHTHOFLAVONE, Method: PREINCUBATION) “active; positive”; (Test System: AMES SALMONELLA TYPHIMURIUM, Strain/Indicator: TA98, Metabolic Activation: RAT, LIVER, S-9, AROCLOR 1254, Method: STANDARD PLATE) “inactive; negative”; (Test System: AMES SALMONELLA TYPHIMURIUM, Strain/Indicator: TA98, Metabolic Activation: S-9, Method: PREINCUBATION) “inactive; negative”; (Test System: AMES SALMONELLA TYPHIMURIUM, Strain/Indicator: TA100, Metabolic Activation: HAMSTER, LIVER, S-9, AROCLOR 1254 (10%), Method: PREINCUBATION) “active; positive”; (Test System: AMES SALMONELLA TYPHIMURIUM, Strain/Indicator: TA100, Metabolic Activation: RAT LIVER S-9, PHENOBARBITAL AND BETA-NAPHTHOFLAVONE, Method: PREINCUBATION) “active; positive”; (Test System: AMES SALMONELLA TYPHIMURIUM, Strain/Indicator: TA100, Metabolic Activation: RAT, LIVER, S-9, AROCLOR 1254 (10%), Method: PREINCUBATION) “active; positive”. For the same compound, the mutagenic call runs as follows: (Test System: AMES SALMONELLA TYPHIMURIUM, Strain/Indicator: TA100, Metabolic Activation: S-9, Method: PREINCUBATION) “active; positive”; (Test System: AMES SALMONELLA TYPHIMURIUM, Strain/Indicator: TA104, Metabolic Activation: NONE, Method: STANDARD PLATE) “active; positive”; (Test System: AMES SALMONELLA TYPHIMURIUM, Strain/Indicator: TA1535, Metabolic Activation: HAMSTER, LIVER, S-9, AROCLOR 1254 (10%), Method: PREINCUBATION) “active; positive”; (Test System: AMES SALMONELLA TYPHIMURIUM, Strain/Indicator: TA1535, Metabolic Activation: NONE, Method: DESICCATOR) “active; positive”; (Test System: AMES SALMONELLA TYPHIMURIUM, Strain/Indicator: TA1535, Metabolic Activation: NONE, Method: STANDARD PLATE) “active; positive”; (Test System: AMES SALMONELLA TYPHIMURIUM, Strain/Indicator: TA1535, Metabolic Activation: RAT LIVER S-9, PHENOBARBITAL AND BETA-NAPHTHOFLAVONE, Method: PREINCUBATION) “active; positive”. Also, the mutagenic call is “active; positive” (Test System: AMES SALMONELLA TYPHIMURIUM, Strain/Indicator: TA1535, Metabolic Activation: RAT, LIVER, S-9, AROCLOR 1254 (10%), Method: PREINCUBATION); “active; positive” (Test System: AMES SALMONELLA TYPHIMURIUM, Strain/Indicator: TA1535, Metabolic Activation: RAT, LIVER, S-9, AROCLOR 1254, Method: STANDARD PLATE); “active; positive” (Test System: AMES SALMONELLA TYPHIMURIUM, Strain/Indicator: TA1535, Metabolic Activation: S-9, Method: PREINCUBATION); “inactive; negative” (Test System: AMES SALMONELLA TYPHIMURIUM, Strain/Indicator: TA1537, Metabolic Activation: NONE, Method: STANDARD PLATE); “inactive; negative” (Test System: AMES SALMONELLA TYPHIMURIUM, Strain/Indicator: TA1537, Metabolic Activation: RAT LIVER S-9, PHENOBARBITAL AND BETA-NAPHTHOFLAVONE, Method: PREINCUBATION); “inactive; negative” (Test System: AMES SALMONELLA TYPHIMURIUM, Strain/Indicator: TA1537, Metabolic Activation: RAT, LIVER, S-9, AROCLOR 1254, Method: STANDARD PLATE). The mutagenic call (Test System: AMES SALMONELLA TYPHIMURIUM, Strain/Indicator: TA1537, Metabolic Activation: S-9, Method: PREINCUBATION) was “inactive; negative”; the mutagenic call (Test System: AMES SALMONELLA TYPHIMURIUM, Strain/Indicator: TA4001, Metabolic Activation: NONE, Method: STANDARD PLATE) is “active; positive”; the mutagenic call (Test System: AMES SALMONELLA TYPHIMURIUM, Strain/Indicator: TA4006, Metabolic Activation: NONE, Method: STANDARD PLATE) is “active; positive”; the mutagenic call (Test System: CHINESE HAMSTER V-79, Strain/Indicator: V-79/6-THIOGUANINE, Metabolic Activation: NONE, Method: FLASK ASSAY) was “inactive; negative”; the mutagenic call (Test System: E. COLI, Strain/Indicator: WP2, Metabolic Activation: NONE, Method: STANDARD PLATE) was “active; positive”; the mutagenic call (Test System: E. COLI, Strain/Indicator: WP2, Metabolic Activation: RAT, LIVER, S-9, AROCLOR 1254, Method: STANDARD PLATE) was “active; positive”. Moreover, the mutagenic call is, setting by setting: (Test System: E. COLI, Strain/Indicator: WP2 UVRA, Metabolic Activation: NONE, Method: PREINCUBATION) “active; positive”; (Test System: E. COLI, Strain/Indicator: WP2 UVRA, Metabolic Activation: NONE, Method: STANDARD PLATE) “active; positive”; (Test System: E. COLI, Strain/Indicator: WP2 UVRA, Metabolic Activation: RAT, LIVER, S-9, AROCLOR 1254, Method: STANDARD PLATE) “active; positive”; (Test System: E. COLI, Strain/Indicator: WP2 UVRA, Metabolic Activation: S-9, Method: PREINCUBATION) “active; positive”; (Test System: E.COLI, Strain/Indicator: WP2UVRA, Metabolic Activation: NONE, Method: PREINCUBATION) “active; positive”; (Test System: E.COLI, Strain/Indicator: WP2UVRA, Metabolic Activation: RAT LIVER S-9, PHENOBARBITAL AND BETA-NAPHTHOFLAVONE, Method: PREINCUBATION) “active; positive”.

As to `CS(=O)(=O)N1C2c3ccccc3-c3ccccc3C21` (stereo not drawn), the mutagenic call was “active; positive” (Test System: AMES SALMONELLA TYPHIMURIUM, Strain/Indicator: TA100, Metabolic Activation: NONE, Method: STANDARD PLATE) and “inactive; negative” (Test System: CHINESE HAMSTER V-79, Strain/Indicator: V-79/6-THIOGUANINE, Metabolic Activation: NONE, Method: STANDARD PLATE).
